Reference: patent US12502428B1, “Immunotherapeutic composition for prevention of obesity, nonalcoholic fatty liver disease and hypertriglyceridemia, and methods of use and preparation thereof” (Utopia Therapeutics Pvt Ltd., priority 2025, dated 2025)
Where no end group is shown, it is not given here.

Legend:
[1] = Solubility of test item in phosphate buffered saline; assay type: physicochemical; details: in phosphate buffered saline (PBS; 1×)
From the text: The dosage for rats extrapolated using standard guidelines.
(§1) IAEC approval: IAEC approval obtained for conducting the study; test item name: UT-GT-001; batch number: G2467-145; date of manufacture: 9 Nov.

high-fat fed mice model = experiment: Efficacy of the vaccine in high-fat fed mice model (diet induced obesity, DIO); assay type: in vivo, mice - Balb/c
From the text: This model is often referred to as diet induced obesity (DIO) model.
as §1
The dosage for mice extrapolated using standard guidelines.
Formulation was freshly made just before dosing. […] Immunization of peptide is along with Freund's adjuvant by proper mixing. […] Once the drop test passed (the emulsion drop floated on water as intact), the final formulation was administered to mice with the volume of 300 μl.
Immunization and blood collection. After the acclimatization period, body weights of mice were recorded.
At every blood collection, 12 hours fasting was maintained for animals. […] Blood samples were given to the diagnostic center for different blood parameter analysis.

high-fat fed rat model = experiment: Efficacy of the vaccine in high-fat fed rat model
From the text: Species details: species: rats (Wistar); justification: the rats (Wistar) are recognized by the international guidelines as the recommended test system and considerable historical data is available; source: good quality, healthy animals were procured from Hylasco Biotechnology India Pvt Ltd, (Reg. No. 1808/PO/RcBt/S/15/CPCSEA); animal age at the time of randomization: 07-08 weeks; animal weight at the time of randomization: males: 170±20 grams.
Husbandry and diet composition: number of animals: a total number of 6 animals (6M) per group; animal identification: individual cage tags; housing: animals were housed in stainless steel cages, one animal per cage; diet: pelleted rodent feed ad libitum; temperature: 30° C.; humidity: 30 to 70%; light: 12 hours light and 12 hours dark; water: RO purified water, ad libitum; cleaning of cages: twice in a week; acclimatization: the period of acclimatization was a minimum of seven days in the experimental room after the veterinary examination.
Formulation was freshly made just before dosing. For the primer dose of vaccine 3 mg peptide was dissolved in 1 ml of 1×PBS sterile solution to make 3 mg/mL stock solution. 0.4 mL of stock solution was combined with 0.4 mL of complete Freund's adjuvant by vigorous vortexing. For booster doses, the same procedure was followed except that the stock solution was combined with an equal amount of incomplete Freund's adjuvant instead of complete Freund's adjuvant.
Once the drop test was passed (the emulsion drop floated on water intact), the final formulation was administered to rats at 50 μL at each site of injection.
After acclimatization period, body weights of rats were recorded. The rats were randomized based on body weight after quarantine period into two groups n=6 per group as disease control (6M) and treatment group (6M). The disease control and treatment groups were given a high fat diet ad libitum for 8 consecutive weeks while the treatment group received the vaccine doses by intramuscular route as per study design as weekly once dosing for 7 consecutive weeks.
Initial primer dose was given only once during the treatment initiation and the remaining 6 booster doses were administered weekly once to the treatment group animals. Sham group animals received a normal rodent diet fortified with fat. Blood samples were collected on week 0, week 2, week 4, week 6 and week 8 from animals and analyzed for fasting blood glucose, triglycerides, total cholesterol and lipid profile. At every blood collection, 12 hour fasting was maintained for animals. On the final necropsy day, animals were subjected to euthanasia and major organs like liver, heart, lungs, kidneys, testes, spleen, and epididymal fat were collected, weighed and recorded. Half portion of liver was stored immediately in liquid nitrogen and kept at −80° C. for oil red stain and the remaining half was stored in 10% formalin solution, which was taken for histological evaluation by hematoxylin and eosin (H & E) staining.
Blood was centrifuged at 40° C., 4000 RPM for 15 minutes to separate serum and plasma. The serum and plasma samples were analyzed for serum biochemistry and fasting blood glucose respectively. Remaining serum samples were stored at −80° C. until dispatch to the test facility.
General clinical observations were conducted twice daily and detailed clinical observations were conducted once daily.

[2] = throughout study duration, rats

| Substance | solubility [1] | abnormalities (clinical observation) (high-fat fed mice model) | adverse clinical signs (high-fat fed mice model) | high fat diet intake (high-fat fed mice model) | water intake (high-fat fed mice model) | critical organ weights (toxicology analysis) (high-fat fed rat model; 8 week study) | hematocrit (toxicology analysis) (high-fat fed rat model; 8 week study) | liver function (AST and ALT) (toxicology analysis) (high-fat fed rat model; 8 week study) | adverse clinical signs (high-fat fed rat model; clinical observations, rats) | hand held observations (high-fat fed rat model; clinical observations, rats) | home cage observations (high-fat fed rat model; clinical observations, rats) | nervous and muscle measurements and other observations (high-fat fed rat model; clinical observations, rats) | open field activity (high-fat fed rat model; [2]) | stimulus response (high-fat fed rat model; [2]) |
| --- | --- | --- | --- | --- | --- | --- | --- | --- | --- | --- | --- | --- | --- | --- |
| GTX-SP-208: test item of the rat study: peptide, anti-hyperlipidemic agent, powder form, Galore Tx Pharmaceuticals; presumably the FATP1 peptide of the vaccine (MRAPGAGAASVVS) | 100% |  |  |  |  |  |  |  |  |  |  |  |  |  |
| MRAPGAGAASVVS [vaccine, MRAPGAGAASVVS] |  | No abnormalities were observed | No adverse clinical signs were observed | normal | normal | no changes | no changes | improvement | no adverse clinical signs were observed | responded normally | no abnormalities were observed | No abnormalities observed | normal | normal |
| UT-GT-001: test item of the mice study: peptide, anti-hyperlipidemic agent, powder form, Galore Tx Pharmaceuticals; presumably the FATP1 peptide of the vaccine (MRAPGAGAASVVS) | 100% |  |  |  |  |  |  |  |  |  |  |  |  |  |
